The text below walks through data of ChEMBL document CHEMBL5661943, “ASAP - In vitro antiviral effect” (2024).

The EC50 is the concentration needed to bring the measured effect to its halfway point. What is called EC90 is the concentration at which the effect reaches the 90% level.

Experiment [1] deals with dengue virus type 2. The experiment is described as follows: Functional assay to measure dose dependent changes in antiviral-drug inhibitory efficacy against Dengue virus type 2 New Guinea C in Vero E6 miRFP670 cells (cotreated with P-gp inhibitor, CP100356). Cells are treated with antiviral candidates that are serially diluted, following infection, cells are fixed. EC50 is reported via analysis of fluorescence intensity using high-content imager. The …. It is filed as organism-based, Chlorocebus sabaeus, Vero C1008. The settings on record: for EC90: P-gp concentration 500 nM, P-gp inhibitor CP100356.

The subject of experiment [2] is Zika virus. As to the kind of experiment: EC50 is reported via analysis of immunofluorescence staining. The assay has been performed by Icahn School of Medicine at Mount Sinai. Type of experiment: functional, organism-based, Chlorocebus sabaeus, VeroE6/TMPRSS2. The settings on record: for EC90: P-gp concentration 2 uM, P-gp inhibitor Elacidar.
Experiment [3] relates to Zika virus. As to the kind of experiment: Functional CPE-based assay to measure dose dependent changes in antiviral-drug inhibitory efficacy against Zika virus MR766 in Vero E6 miRFP670 cells (cotreated with P-gp inhibitor, CP100356). Cells are treated with antiviral candidates that are serially diluted. EC50 is reported via analysis of MTS assay as a readout of CPE. The assay has been performed by KU Leuven. Type of experiment: organism-based, Chlorocebus sabaeus, Vero C1008. The note with it: Zika virus; for EC90: P-gp concentration 500 nM, P-gp inhibitor CP100356. On the technique in general: Formazan colour is commonly taken as a measure of viable cells.

For experiment [4], the system named is dengue virus type 2. As to the kind of experiment: Functional immunofluorescence assay to measure dose dependent changes in antiviral-drug inhibitory efficacy against Dengue virus type 2 Thailand/16681/84 in Vero E6/TMPRSS2 cells (cotreated with P-gp inhibitor, Elacridar). Cells are treated with antiviral candidates that are serially diluted, following infection, cells are fixed. EC50 is reported via analysis of immunofluorescence staining. The assay has been performed by Icahn School of Medicine at Mount Sinai. It is filed as organism-based, Chlorocebus sabaeus, VeroE6/TMPRSS2. The settings on record: Dengue virus, VeroE6/TMPRSS2.

“And” between values parts separate entries of the source, which are not always exact repeats. Identical values can stand only once.

Regarding `Cc1cc(C(=O)Nc2ccc3c(c2)CNC3)c2cn[nH]c2c1`, the EC50 in experiment [1] (Dengue virus, Vero C1008) was above 50 µM; in experiment [2] (veroe6/tmprss2) it was 4.92 µM and 30 µM; in experiment [3] (Vero C1008), 7.79 µM; in experiment [4] it was above 16.7 µM. Besides, the EC90 in experiment [1] (Dengue virus, Vero C1008, Maximum measured 131.325 %, Minimum measured 92.066 %) is above 50 µM; in experiment [2] (Baseline response 0 %, Hill slope -2.011, Maximum measured 89.225 %, Maximum response 60 %, Minimum measured 14.739 %, R squared 0.55), above 50 µM; in experiment [2] (Zika virus, VeroE6/TMPRSS2, Baseline response 0 %, Hill slope -0.435, Maximum measured 146.607 %, Maximum response 100 %, Minimum measured 37.409 %, R squared 0.47), above 50 µM; in experiment [3] (Vero C1008, Baseline response 0 %, EC90 CI (lower) 4.895 uM, EC90 CI (upper) 50.446 uM, Hill slope 3.132, Maximum measured 172.887 %, Maximum response 100 %, Minimum measured 3.006 %, R squared 0.777), 15.7 µM; in experiment [4] (Baseline response 0 %, Hill slope -0.131, Maximum measured 111.871 %, Maximum response 100 %, Minimum measured 74.867 %, P-gp concentration 2 uM, R squared 0.056, P-gp inhibitor Elacidar), above 16.7 µM.
Consider `O=C(Nc1ccc2c(c1)CNC2)c1cc(C(F)(F)F)cc2[nH]ccc12`, for which the EC50 in experiment [1] (Dengue virus, Vero C1008) is above 50 µM; in experiment [2] (Zika virus, VeroE6/TMPRSS2), above 50 µM; in experiment [3] (Vero C1008), 45.6 µM; in experiment [4] it was above 16.7 µM. In addition, the EC90 was above 50 µM in experiment [1] (Dengue virus, Vero C1008, Baseline response 0 %, Hill slope -0.556, Maximum measured 107.588 %, Maximum response 100 %, Minimum measured 39.301 %, R squared 0.196); above 50 µM in experiment [2] (Zika virus, VeroE6/TMPRSS2, Maximum measured 116.047 %, Minimum measured 72.993 %); above 50 µM in experiment [3] (Vero C1008, Baseline response 0 %, Hill slope 3.148, Maximum measured 56.87 %, Maximum response 100 %, Minimum measured -2.102 %, R squared 0.945); above 16.7 µM in experiment [4] (Baseline response 0 %, Hill slope -15.878, Maximum measured 193.651 %, Maximum response 148.635 %, Minimum measured 63.423 %, P-gp concentration 2 uM, R squared 0.446, P-gp inhibitor Elacidar).
In the case of `O=C(Nc1ccc2c(c1)CCNCC2)c1cc(Cl)cc2[nH]ncc12`, the EC50 in experiment [1] (Dengue virus, Vero C1008) is above 25 µM; in experiment [2] (Zika virus, VeroE6/TMPRSS2), above 50 µM; in experiment [3] (Vero C1008), above 50 µM; in experiment [4] it was above 50 µM. In addition, the EC90 in experiment [1] (Dengue virus, Vero C1008, Baseline response 0 %, Hill slope -0.681, Maximum measured 107.454 %, Maximum response 100 %, Minimum measured 77.093 %, R squared 0.152) was above 25 µM; in experiment [2] (Zika virus, VeroE6/TMPRSS2, Maximum measured 112.155 %, Minimum measured 46.888 %), above 50 µM; in experiment [3] (Vero C1008, Maximum measured -0.637 %, Minimum measured -2.713 %) it was above 50 µM; in experiment [4] it was above 50 µM.
For the compound `O=C(Nc1ccc2c(n1)CNC2)c1cc(Cl)cc2[nH]ncc12`, the EC50 is above 50 µM in experiment [1] (Dengue virus, Vero C1008); 5.29 µM in experiment [2] (Zika virus, VeroE6/TMPRSS2); above 50 µM in experiment [3] (Vero C1008); 33.2 µM in experiment [4]. Moreover, the 90% effect concentration (EC90) in experiment [1] (Dengue virus, Vero C1008, Baseline response 0 %, Hill slope 0.339, Maximum measured 101.822 %, Maximum response 100 %, Minimum measured 73.077 %, R squared 0.116) was above 50 µM; in experiment [2] (Zika virus, VeroE6/TMPRSS2, Baseline response 0 %, Hill slope -0.136, Maximum measured 80.309 %, Maximum response 100 %, Minimum measured 35.788 %, R squared 0.184), above 50 µM; in experiment [3] (Vero C1008, Baseline response 0 %, Hill slope 0.276, Maximum measured 8.826 %, Maximum response 100 %, Minimum measured 2.871 %, R squared 0.346) it was above 50 µM; in experiment [4] (Baseline response 0 %, Hill slope -0.91, Maximum measured 153.42 %, Maximum response 100 %, Minimum measured 44.335 %, P-gp concentration 2 uM, R squared 0.461, P-gp inhibitor Elacidar) it was above 50 µM.
In the case of `Cc1ccc(NC(=O)c2cc(Cl)cc3[nH]ncc23)cc1CN`, the EC50 was 29.2 µM in experiment [1] (Dengue virus, Vero C1008); 23.7 µM in experiment [2] (Zika virus, VeroE6/TMPRSS2); above 50 µM in experiment [3] (Vero C1008); above 50 µM in experiment [4]. The EC90 is above 50 µM in experiment [1] (Dengue virus, Vero C1008, Baseline response 0 %, Hill slope -1.708, Maximum measured 106.876 %, Maximum response 100 %, Minimum measured 12.632 %, R squared 0.516); above 50 µM in experiment [2] (Zika virus, VeroE6/TMPRSS2, Baseline response 0 %, Hill slope -0.507, Maximum measured 128.919 %, Maximum response 100 %, Minimum measured 43.47 %, R squared 0.43); above 50 µM in experiment [3] (Vero C1008, Maximum measured -0.519 %, Minimum measured -6.318 %); above 50 µM in experiment [4] (Baseline response 0 %, Hill slope -2.664, Maximum measured 202.734 %, Maximum response 169.492 %, Minimum measured 72.11 %, P-gp concentration 2 uM, R squared 0.716, P-gp inhibitor Elacidar).
On to `N#Cc1cc(C(=O)Nc2ccc3c(c2)CNC3)cc(C(F)(F)F)c1`, for which the EC50 in experiment [1] (Dengue virus, Vero C1008) is above 50 µM; in experiment [2] (Zika virus, VeroE6/TMPRSS2), above 50 µM; in experiment [3] (Vero C1008) it was above 50 µM; in experiment [4] it was 23.5 µM. Further, the EC90 in experiment [1] (Dengue virus, Vero C1008, Baseline response 0 %, Hill slope 0.474, Maximum measured 101.337 %, Maximum response 100 %, Minimum measured 73.182 %, R squared 0.159) was above 50 µM; in experiment [2] (Zika virus, VeroE6/TMPRSS2, Maximum measured 132.778 %, Minimum measured 43.807 %), above 50 µM; in experiment [3] (Vero C1008, Baseline response 0 %, Hill slope 0.826, Maximum measured 10.885 %, Maximum response 100 %, Minimum measured 0.969 %, R squared 0.373), above 50 µM; in experiment [4] (Baseline response 0 %, Hill slope -2.224, Maximum measured 139.741 %, Maximum response 100 %, Minimum measured 16.816 %, P-gp concentration 2 uM, R squared 0.66, P-gp inhibitor Elacidar), above 50 µM.
On to `O=C(Nc1cc(Cl)cc(C(=O)Nc2ccc(-n3nn[nH]c3=O)cc2)c1)OCc1ccccc1`, for which the EC90 was 9.32 µM in experiment [1] (Baseline response 0 %, EC90 CI (lower) 3.172 uM, EC90 CI (upper) 10.269 uM, Hill slope -8.96, Maximum measured 107.351 %, Maximum response 100 %, Minimum measured 0.837 %, R squared 0.832); above 50 µM in experiment [1] (Baseline response 0 %, Hill slope -35.644, Maximum measured 130.696 %, Maximum response 100 %, Minimum measured 29.339 %, R squared 0.657); above 50 µM in experiment [2] (Zika virus, VeroE6/TMPRSS2, Baseline response 0 %, Hill slope -16.502, Maximum measured 156.276 %, Maximum response 100 %, Minimum measured 42.402 %, R squared 0.326); above 50 µM in experiment [3] (Vero C1008, Baseline response 0 %, Hill slope 1.628, Maximum measured 15.335 %, Maximum response 100 %, Minimum measured -0.05 %, R squared 0.878); above 16.7 µM in experiment [4] (Baseline response 0 %, Hill slope -0.45, Maximum measured 123.141 %, Maximum response 100 %, Minimum measured 41.064 %, P-gp concentration 2 uM, R squared 0.456, P-gp inhibitor Elacidar). Besides, the EC50 in experiment [1] (vero c1008) is 7.29 µM and 48.8 µM; in experiment [2] (Zika virus, VeroE6/TMPRSS2), 49.1 µM; in experiment [3] (Vero C1008) it was above 50 µM; in experiment [4], 11.4 µM.
As for `CCc1cc(C(=O)Nc2cccc(-c3nnn[nH]3)c2)sc1-c1ccc(Cl)cc1`, the EC50 in experiment [1] (Dengue virus, Vero C1008) was above 25 µM; in experiment [2] (Zika virus, VeroE6/TMPRSS2), above 16.7 µM; in experiment [3] (Vero C1008), above 50 µM; in experiment [4], above 16.7 µM. The EC90 in experiment [1] (Dengue virus, Vero C1008, Baseline response 0 %, Hill slope 0.831, Maximum measured 164.159 %, Maximum response 100 %, Minimum measured 71.563 %, R squared 0.225) is above 25 µM; in experiment [2] (Zika virus, VeroE6/TMPRSS2, Maximum measured 109.494 %, Minimum measured 75.609 %), above 16.7 µM; in experiment [3] (Vero C1008, Baseline response 0 %, Hill slope -0.614, Maximum measured 5.848 %, Maximum response 100 %, Minimum measured -4.216 %, R squared 0.418) it was above 50 µM; in experiment [4] (Baseline response 0 %, Hill slope -0.101, Maximum measured 96.419 %, Maximum response 100 %, Minimum measured 50.045 %, P-gp concentration 2 uM, R squared 0.073, P-gp inhibitor Elacidar), above 16.7 µM.
